Literature values in article PMC4496498, “Radiosynthesis, In Vivo Biological Evaluation, and Imaging of Brain Lesions with [^123I]-CLINME, a New SPECT Tracer for the Translocator Protein” (Disease Markers, 2015).

Assays:
TSPO = TSPO (Rattus norvegicus, UniProt P16257); parameters: from tissue; method as in PMID 17680643; conditions: same animal model; cited from earlier work
TPSO [1] = conditions: at 8 h; cited from earlier work
TPSO [2] = conditions: cited from earlier work

Sequence of TSPO (P16257 whole entry): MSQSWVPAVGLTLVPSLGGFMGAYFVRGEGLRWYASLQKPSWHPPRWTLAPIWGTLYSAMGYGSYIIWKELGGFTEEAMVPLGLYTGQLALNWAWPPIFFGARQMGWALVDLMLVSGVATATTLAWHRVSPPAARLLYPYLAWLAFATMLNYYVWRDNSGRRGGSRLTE

SMILES | ratio lesion versus contralateral striatum, PET (TSPO) | further results
CCC(C)N([11CH3])C(=O)c1cc2ccccc2c(-c2ccccc2Cl)n1 (stereo not shown) [[^11C]-PK11195] | 1.62 ± 0.05 | –
CCN([11CH3])C(=O)Cc1c(-c2ccc(I)cc2)nc2ccc(Cl)cn12 [[^11C]-CLINME] | 2.14 ± 0.09 | –
CCN(CC)C(=O)Cc1c(-c2ccc([123I])cc2)nc2ccc(Cl)cn12 [[^123I]-CLINDE] | – | ratio of uptake olfactory bulbs versus rest of brain (TPSO [1]): 6
CCN(CC)C(=O)Cc1c(-c2ccc(I)cc2)nc2ccc(Cl)cn12 [CLINDE] | – | selectivity for the TPSO over the CBR (TPSO [2]): 200 fold
